From patent US11767341B2, “Lincosamide antibiotics and uses thereof” (President and Fellows of Harvard College, priority 2017, dated 2023)
In brackets after ≈: the same amount, converted by molar mass. Like-named read-outs stand apart in the source and are kept apart here.

Assays:
Assay in all cases: MIC determination
Format in all cases: cell-based
[1] = test system: S. pneumoniae ATCC 49619; conditions: Streptococcus pneumoniae, ATCC49619
[2] = test system: H. influenzae ATCC 49247; conditions: Haemophilus influenzae, ATCC49247
[3] = test system: S. aureus BAA 977 iErmA; conditions: Staphylococcus aureus, BAA977
[4] = test system: C. difficile BAA 1805; conditions: Clostridioides difficile, BAA1805
[5] = test system: E. coli MP-9 ΔTolC; conditions: Escherichia coli
[6] = test system: E. coli ATCC 25922; conditions: Escherichia coli
[7] = test system: S. aureus MP-549 msr(a) USA 300; conditions: Staphylococcus aureus, USA300, S. aureus MP-549 msr(a) USA 300
[8] = test system: S. aureus ATCC 29213; conditions: Staphylococcus aureus
[9] = test system: S. pyogenes ATCC 19615; conditions: Streptococcus pyogenes, ATCC19615
[10] = test system: E. coli MP-74 LptD mutant; conditions: Escherichia coli
[11] = test system: K. pneumoniae ATCC 10031; conditions: Klebsiella pneumoniae, ATCC10031
[12] = test system: E. faecalis ATCC 29212; conditions: Enterococcus faecalis
[13] = test system: S. aureus MMX 3035 cErmA; conditions: Staphylococcus aureus, MMX3035CERMA
[14] = test system: P. aeruginosa MMX 3476 Δmex; conditions: Pseudomonas aeruginosa
[15] = test system: S. pneumoniae MMX 3028 cErmB; conditions: Streptococcus pneumoniae, MMX3028CERMB
[16] = test system: S. aureus Micromyx USA 300; conditions: Staphylococcus aureus, USA300
[17] = test system: S. pneumoniae MMX 3031 cMefA; conditions: Streptococcus pneumoniae, MMX3031CMEFA
[18] = test system: P. aeruginosa ATCC 27853; conditions: Pseudomonas aeruginosa, ATCC27853
[19] = test system: S. pyogenes MMX 946 Macrolide-Resistant; conditions: Streptococcus pyogenes
[20] = test system: P. aeruginosa MMX Mex parent strain; conditions: Pseudomonas aeruginosa
[21] = test system: E. coli MMX TolC parent strain; conditions: Escherichia coli
[22] = test system: E. coli MMX 0121 ΔTolC; conditions: Escherichia coli
[23] = test system: B. fragilis ATCC 25285; conditions: Bacteroides fragilis, ATCC25285
[24] = test system: E. faecalis MMX 847 Macrolide-Resistant; conditions: Enterococcus faecalis
[25] = S. pyogenes ATCC 19615, read-out: MIC
[26] = S. pneumoniae ATCC 49619, read-out: MIC
[27] = S. aureus Micromyx USA 300, read-out: MIC
[28] = C. difficile BAA 1805, read-out: MIC
[29] = ATCC29213, S. aureus ATCC 29213, read-out: MIC
[30] = S. pneumoniae MMX 3028 cErmB, read-out: MIC
[31] = S. pyogenes MMX 946 Macrolide-Resistant (MacRes), read-out: MIC
[32] = S. aureus MMX 3035 cErmA, read-out: MIC
[33] = H. influenzae ATCC 49247, read-out: MIC
[34] = ATCC25922, E. coli ATCC 25922, read-out: MIC
[35] = E. faecalis MMX 847 Macrolide-Resistant (MacRes), read-out: MIC

Structure (SMILES)	MIC [2]	MIC [3]	MIC [4]	MIC [5]	MIC ([6]; ATCC25922)	MIC [7]	MIC ([8]; ATCC29213)	MIC [9, 25]	MIC [10]	MIC [11]	MIC ([12]; ATCC29212)	MIC [1, 26]	MIC [13]	MIC [14]	MIC [15]	MIC [17]	MIC [18]	MIC [8, 29]	MIC ([12]; ATCC29212, read-out: MIC)	MIC [19, 31]	other results
CSC1O[C@H]([C@H](NC(=O)[C@H]2NC[C@@H]3CC(N)CCO[C@H]32)[C@H](C)Cl)C(O)[C@@H](O)[C@H]1O (some centres unmarked) [FSA-510012]	> 64 µg/mL	> 64 µg/mL	> 64 µg/mL	> 64 µg/mL	> 64 µg/mL	> 64 µg/mL	> 64 µg/mL	32 µg/mL (≈ 70.5 µM)	> 64 µg/mL	> 64 µg/mL	> 64 µg/mL										MIC [1]: > 64 µg/mL
CSC1O[C@H]([C@H](NC(=O)[C@H]2NC[C@@H]3CC(c4ccc(F)cc4)=CCO[C@H]32)[C@H](C)Cl)C(O)[C@@H](O)[C@H]1O (some centres unmarked) [FSA-507057]	64 µg/mL (≈ 121 µM)	1 µg/mL (≈ 1.88 µM)			> 64 µg/mL			0.12 µg/mL (≈ 0.226 µM)				≤ 0.06 µg/mL	> 64 µg/mL	> 64 µg/mL	64 µg/mL (≈ 121 µM)	≤ 0.06 µg/mL	> 64 µg/mL	2 µg/mL (≈ 3.77 µM)	1 µg/mL (≈ 1.88 µM)		MIC [16, 27]: 0.5 µg/mL (≈ 0.942 µM); MIC [4, 28]: 16 µg/mL (≈ 30.1 µM); MIC [19]: > 64 µg/mL; MIC [20]: > 64 µg/mL; MIC [21]: > 64 µg/mL; MIC [22]: 64 µg/mL (≈ 121 µM); MIC [23]: 64 µg/mL (≈ 121 µM); MIC [24]: > 64 µg/mL
CSC1O[C@H]([C@H](NC(=O)[C@H]2NC[C@@H]3C=C(c4ccc(C(F)(F)F)cc4)CCO[C@@H]23)[C@H](C)Cl)C(O)[C@@H](O)[C@H]1O (some centres unmarked) [FSA-507053]	16 µg/mL (≈ 27.5 µM)	0.25 µg/mL (≈ 0.43 µM)			> 64 µg/mL			≤ 0.06 µg/mL				0.25 µg/mL (≈ 0.43 µM)	> 64 µg/mL	> 64 µg/mL		0.12 µg/mL (≈ 0.207 µM)	> 64 µg/mL	0.25 µg/mL (≈ 0.43 µM)	2 µg/mL (≈ 3.44 µM)	32 µg/mL (≈ 55.1 µM)	MIC [15, 30]: 32 µg/mL (≈ 55.1 µM); MIC [16, 27]: 0.12 µg/mL (≈ 0.207 µM); MIC [4, 28]: 8 µg/mL (≈ 13.8 µM); MIC [20]: > 64 µg/mL; MIC [21]: > 64 µg/mL; MIC [22]: 16 µg/mL (≈ 27.5 µM); MIC [23]: 16 µg/mL (≈ 27.5 µM); MIC [24]: > 64 µg/mL
CSC1O[C@H]([C@H](NC(=O)[C@H]2NC[C@H]3CC=CCO[C@H]32)[C@H](C)Cl)C(O)[C@@H](O)[C@H]1O (some centres unmarked) [FSA-507051]	16 µg/mL (≈ 36.6 µM)	16 µg/mL (≈ 36.6 µM)	> 32 µg/mL		32 µg/mL (≈ 73.2 µM)		16 µg/mL (≈ 36.6 µM)				> 32 µg/mL	1 µg/mL (≈ 2.29 µM)	> 32 µg/mL	> 32 µg/mL	> 32 µg/mL	1 µg/mL (≈ 2.29 µM)	> 32 µg/mL				MIC [16]: 16 µg/mL (≈ 36.6 µM); MIC [19]: 32 µg/mL (≈ 73.2 µM); MIC [20]: > 32 µg/mL; MIC [21]: > 32 µg/mL; MIC [22]: > 32 µg/mL; MIC [23]: 32 µg/mL (≈ 73.2 µM); MIC [24]: > 32 µg/mL; MIC [9]: 0.5 µg/mL (≈ 1.14 µM)
CNC1CCO[C@@H]2[C@H](CN[C@@H]2C(=O)N[C@H]([C@H](C)Cl)[C@H]2OC(SC)[C@H](O)[C@H](O)C2O)C1 (some centres unmarked) [FSA-510065]	> 64 µg/mL	> 64 µg/mL	> 64 µg/mL	> 64 µg/mL	> 64 µg/mL	> 64 µg/mL	> 64 µg/mL	32 µg/mL (≈ 68.4 µM)	> 64 µg/mL	> 64 µg/mL	> 64 µg/mL										MIC [1]: > 64 µg/mL
CSC1O[C@H]([C@H](NC(=O)[C@H]2NC[C@@H]3C=C(c4ccc(F)cc4F)CCO[C@@H]23)[C@H](C)Cl)C(O)[C@@H](O)[C@H]1O (some centres unmarked) [FSA-511072]		1 µg/mL (≈ 1.82 µM)		32 µg/mL (≈ 58.3 µM)		1 µg/mL (≈ 1.82 µM)		0.25 µg/mL (≈ 0.455 µM)	64 µg/mL (≈ 117 µM)	32 µg/mL (≈ 58.3 µM)		0.12 µg/mL (≈ 0.219 µM)			64 µg/mL (≈ 117 µM)	0.12 µg/mL (≈ 0.219 µM)		1 µg/mL (≈ 1.82 µM)	4 µg/mL (≈ 7.29 µM)	> 64 µg/mL	MIC [13, 32]: > 64 µg/mL; MIC [2, 33]: > 64 µg/mL; MIC [6, 34]: > 64 µg/mL; MIC [24, 35]: > 64 µg/mL
CSC1O[C@H]([C@H](NC(=O)[C@@H]2[C@@H]3OCC=CC[C@H]3CN2C)[C@H](C)Sc2ccc(-c3cccnc3)cc2)C(O)[C@@H](O)[C@H]1O (some centres unmarked) [FSA-213064]		0.25 µg/mL (≈ 0.415 µM)		16 µg/mL (≈ 26.6 µM)		0.25 µg/mL (≈ 0.415 µM)		≤ 0.125 µg/mL				≤ 0.125 µg/mL	16 µg/mL (≈ 26.6 µM)			0.125 µg/mL (≈ 0.208 µM)		0.25 µg/mL (≈ 0.415 µM)	32 µg/mL (≈ 53.2 µM)	2 µg/mL (≈ 3.32 µM)	MIC [15, 30]: 8 µg/mL (≈ 13.3 µM); MIC ([18]; P. aeruginosa ATCC 27853, read-out: MIC): > 64 µg/mL; MIC [6, 34]: > 64 µg/mL; MIC [24, 35]: > 64 µg/mL; MIC ([11]; K. pneumoniae ATCC 10031, read-out: MIC): 64 µg/mL (≈ 106 µM)
CSC1O[C@H]([C@H](NC(=O)[C@H]2NC[C@@H]3C=C(c4cccc(F)c4)CCO[C@@H]23)[C@H](C)Cl)C(O)[C@@H](O)[C@H]1O (some centres unmarked) [FSA-511071]		2 µg/mL (≈ 3.77 µM)		64 µg/mL (≈ 121 µM)		1 µg/mL (≈ 1.88 µM)		0.5 µg/mL (≈ 0.942 µM)	64 µg/mL (≈ 121 µM)	64 µg/mL (≈ 121 µM)		0.25 µg/mL (≈ 0.471 µM)			64 µg/mL (≈ 121 µM)	0.5 µg/mL (≈ 0.942 µM)		7 µg/mL (≈ 13.2 µM)	4 µg/mL (≈ 7.53 µM)	> 64 µg/mL	MIC [13, 32]: > 64 µg/mL; MIC [2, 33]: > 64 µg/mL; MIC [6, 34]: > 64 µg/mL; MIC [24, 35]: > 64 µg/mL
